Literature values, collected in patent US20050220774A1, “Methods of inducing differentiation in ex vivo expanded stem cells” (priority 2002, published 2005).

How the values were obtained:
[1] = tested on: stem cells; details: PCT/IL03/00064
[2] = tested on: CD34+ cells

Compound	differentiation of stem cells ex vivo [1]	clonability of long-term cultures ([2]; long-term cultures (3-5 weeks))	cell clonability and percentage of CD34+ cells ([2]; with early-acting or early and late acting cytokines)
NC(=O)c1cccnc1 [nicotinamide]	represses the process of differentiation of stem cells		
NCCNCCNCCNCCN [TEPA, tetraethylenepentamine]		more efficient clonability	significant increases
